Our source for the Activity, MIC and IC50 values is ChEMBL document CHEMBL3045812, “Synthesis of fatty acid Schiff base esters as potential antimicrobial and chemotherapeutic agents” (Med Chem Res, 2013).

In one assay the test system is Raoultella planticola. Description: Antibacterial activity against Raoultella planticola MTCC 530 at 1.4 to 300 ug/ml after 24 hr by microtiter broth dilution method. The assay is classed as functional, organism-based. For orientation: Dilution methods test growth across graded concentrations, often in twofold steps.
The test system of a further assay is Escherichia coli. Description: Antibacterial activity against Escherichia coli MTCC 739 at 1.4 to 300 ug/ml after 24 hr by microtiter broth dilution method. The assay is classed as functional, organism-based.
For a further assay, the system named is Micrococcus luteus. Description: Antibacterial activity against Micrococcus luteus MTCC 2470 at 1.4 to 300 ug/ml after 24 hr by microtiter broth dilution method. The assay is classed as functional, organism-based.
The next assay deals with Pseudomonas aeruginosa. Kind of assay: Antibacterial activity against Pseudomonas aeruginosa MTCC 2453 after 24 hr by microtiter broth dilution method. The assay is classed as functional.
In assay [1] the test system is Staphylococcus aureus. Kind of assay: Antibacterial activity against Staphylococcus aureus MLS16 MTCC 2940 after 24 hr by microtiter broth dilution method. The assay is classed as functional.
The test system of the next assay is Bacillus subtilis. Description: Antibacterial activity against Bacillus subtilis MTCC 121 after 24 hr by microtiter broth dilution method. In kind it is functional.
The test system of assay [2] is Staphylococcus aureus. Kind of assay: Antibacterial activity against Staphylococcus aureus MTCC 96 after 24 hr by microtiter broth dilution method. In kind it is functional.
The next assay concerns N2a. Kind of assay: Cytotoxicity against Mus musculus (mouse) Neuro2a cells by tetrazolium-reduction assay. In kind it is functional, cell-based.
In a further assay the test system is HeLa. Description: Cytotoxicity against Homo sapiens (human) HeLa cells by tetrazolium-reduction assay. The assay is classed as functional, cell-based.
The next assay deals with HepG2. Kind of assay: Cytotoxicity against Homo sapiens (human) HepG2 cells by tetrazolium-reduction assay. In kind it is functional, cell-based.
Another assay deals with A549. Description: Cytotoxicity against Homo sapiens (human) A549 cells by tetrazolium-reduction assay. In kind it is functional, cell-based.
The subject of assay [3] is Candida albicans. Kind of assay: Antifungal activity against Candida albicans MTCC 227 at 1.4 to 300 ug/ml after 24 hr by microtiter broth dilution method. In kind it is functional, organism-based.
Assay [4] concerns Candida albicans. Kind of assay: Antifungal activity against Candida albicans MTCC 854 at 1.4 to 300 ug/ml after 24 hr by microtiter broth dilution method. In kind it is functional, organism-based.
A further assay relates to MDA-MB-231. Description: Cytotoxicity against Homo sapiens (human) MDA-MB-231 cells by tetrazolium-reduction assay. The assay is classed as functional, cell-based.
The test system of the next assay is MCF7. Description: Cytotoxicity against Homo sapiens (human) MCF7 cells by tetrazolium-reduction assay. In kind it is functional, cell-based.
For the next assay, the system named is [Candida] aaseri. Description: Antifungal activity against Candida aaseri MTCC 1962 at 1.4 to 300 ug/ml after 24 hr by microtiter broth dilution method. The assay is classed as functional, organism-based.
The test system of the next assay is Candida parapsilosis. Kind of assay: Antifungal activity against Candida parapsilosis MTCC 1744 at 1.4 to 300 ug/ml after 24 hr by microtiter broth dilution method. The assay is classed as functional, organism-based.
A further assay concerns Nakaseomyces glabratus. Kind of assay: Antifungal activity against Candida glabrata MTCC 3019 at 1.4 to 300 ug/ml after 24 hr by microtiter broth dilution method. In kind it is functional, organism-based.
In assay [5] the test system is Candida albicans. Kind of assay: Antifungal activity against Candida albicans MTCC 3017 at 1.4 to 300 ug/ml after 24 hr by microtiter broth dilution method. In kind it is functional, organism-based.
For assay [6], the system named is Candida albicans. Description: Antifungal activity against Candida albicans MTCC 3018 at 1.4 to 300 ug/ml after 24 hr by microtiter broth dilution method. In kind it is functional, organism-based.
In assay [7] the test system is Candida albicans. Kind of assay: Antifungal activity against Candida albicans MTCC 3958 at 1.4 to 300 ug/ml after 24 hr by microtiter broth dilution method. The assay is classed as functional, organism-based.
Assay [8] has as its system Candida albicans. Description: Antifungal activity against Candida albicans MTCC 1637 at 1.4 to 300 ug/ml after 24 hr by microtiter broth dilution method. The assay is classed as functional, organism-based.
For assay [9], the system named is Candida albicans. Description: Antifungal activity against Candida albicans MTCC 183 at 1.4 to 300 ug/ml after 24 hr by microtiter broth dilution method. The assay is classed as functional, organism-based.
The test system of assay [10] is Candida albicans. Description: Antifungal activity against Candida albicans MTCC 7315 at 1.4 to 300 ug/ml after 24 hr by microtiter broth dilution method. In kind it is functional, organism-based.
Where [11] appears, read: Homo sapiens, MCF7, read-out: IC50.

Structures are written as SMILES. ≈ marks a conversion by molar mass, not a printed value. Calls of active or inactive are those of the source. No cut-off for these calls is given here.

`CCCCCCCCCCCC(=O)Oc1ccc(/C=N/Cc2cccnc2)cc1`: the outcome with Raoultella planticola, in the assay with Escherichia coli, in the assay on Micrococcus luteus, with N2a, in the assay with HeLa and in the assay with HepG2 was inactive. Also, the outcome (with A549; in the assay on Candida albicans [3]; in the assay with Candida albicans [4]; in assay [Candida] aaseri; in the assay on Candida parapsilosis; in the assay with Nakaseomyces glabratus) was inactive. The result in the assay on Candida albicans [5], in the assay on Candida albicans [6], in the assay with Candida albicans [7], with Candida albicans [8], with Candida albicans [9] and in the assay on Candida albicans [10] was inactive. The MIC entry in the assay on Pseudomonas aeruginosa and in the assay on Bacillus subtilis was “inactive” each time. The MIC in the assay with Staphylococcus aureus [1] (MLS16 MTCC 2940, 24 h) is 150 µg/mL (≈ 380 µM); against Staphylococcus aureus [2] (MTCC 96, 24 h), 150 µg/mL (≈ 380 µM). Also, the IC50 turned out to be 18.9 µM with MDA-MB-231 and 17.6 µM with MCF7 (setting [11]).

Take `Oc1ccc(/C=N/Cc2cccnc2)cc1`: the MIC result with Pseudomonas aeruginosa, in the assay with Staphylococcus aureus [1] and in the assay on Bacillus subtilis was “inactive” in each case. This molecule also had an MIC with Staphylococcus aureus [2] (MTCC 96, 24 h) of 75 µg/mL (≈ 353 µM). The result with N2a, with HeLa, with HepG2, in the assay with A549, in the assay with Candida albicans [3] and in the assay on Candida albicans [4] was inactive. Also, the result (in assay [Candida] aaseri; in the assay with Candida parapsilosis; with Nakaseomyces glabratus; in the assay with Candida albicans [5]; with Candida albicans [6]; with Candida albicans [7]) was inactive. Moreover, the result in the assay on Candida albicans [8], in the assay with Candida albicans [9] and in the assay with Candida albicans [10] was inactive. Also, the concentration for half-maximal inhibition (IC50) turned out to be 16.9 µM in the assay with MDA-MB-231 and 12 µM with MCF7 (setting [11]).

As for `CCCCCCCCCCCCCCCC(=O)Oc1ccc(/C=N/Cc2cccnc2)cc1`, the outcome with Raoultella planticola, in the assay with Escherichia coli, in the assay on Micrococcus luteus, with N2a, in the assay on HeLa and in the assay with HepG2 was inactive. The result (with A549; in the assay with Candida albicans [3]; in the assay with Candida albicans [4]; in assay [Candida] aaseri; with Candida parapsilosis; in the assay with Nakaseomyces glabratus) was inactive. Also, the result in the assay on Candida albicans [5], with Candida albicans [6], in the assay with Candida albicans [7], in the assay with Candida albicans [8], in the assay on Candida albicans [9] and in the assay on Candida albicans [10] was inactive. Besides, the MIC result with Pseudomonas aeruginosa, in the assay on Staphylococcus aureus [1], in the assay with Bacillus subtilis and with Staphylococcus aureus [2] was “inactive” each time.

For `CCCCCCCCCCCCCCCCCC(=O)Oc1ccc(/C=N/Cc2cccnc2)cc1`, the result in the assay on Raoultella planticola, in the assay with Escherichia coli, in the assay with Micrococcus luteus, with N2a, in the assay on HeLa and in the assay on HepG2 was inactive. The outcome (with A549; with Candida albicans [3]; with Candida albicans [4]; in assay [Candida] aaseri; with Candida parapsilosis; with Nakaseomyces glabratus) was inactive. In addition, the outcome in the assay with Candida albicans [5], with Candida albicans [6], in the assay with Candida albicans [7], in the assay with Candida albicans [8], in the assay on Candida albicans [9] and in the assay with Candida albicans [10] was inactive. Besides, the MIC in the assay with Pseudomonas aeruginosa (MTCC 2453, 24 h) was found to be 300 µg/mL (≈ 627 µM); in the assay on Staphylococcus aureus [1] (MLS16 MTCC 2940, 24 h), 300 µg/mL (≈ 627 µM); against Staphylococcus aureus [2] (MTCC 96, 24 h) it was 300 µg/mL (≈ 627 µM). Moreover, the MIC entry in the assay with Bacillus subtilis was “inactive”. For the same molecule, the IC50 was 11.5 µM in the assay on MDA-MB-231 and “Not Active” with MCF7 (mcf7).

The MIC is the lowest concentration that inhibits growth of the organism. As usually defined, the IC50 is the concentration at which inhibition is half-maximal.
